Source: patent US20250154219A1, “PEPTIDE ANALOGS” (Adepthera LLC, priority 2017, published 2025)

How the values were obtained:
Format in all cases: cell-based
CLR/RAMP2 receptor [1] = target: T1, CLR/RAMP2 receptor (Homo sapiens, UniProt O60895+Q16602); assay: CLR/RAMP2 arrestin assay, antagonist mode (ADM-stimulated)
Description: A cell line carrying the recombinant CLR/RAMP1, CLR/RAMP2, or a CLR/RAMP3 receptor was employed in the assay. Peptide agonist activities were tested, in duplicate, at 10 different concentrations, starting with 1.0 μM and serially diluted 3-fold, in DMSO. […] The CLR/RAMP1 CAMP, CLR/RAMP2 arrestin, and CLR/RAMP3 CAMP assays (DiscoveRx, Fremont, Calif.) were used.
For the analysis of antagonistic activity, synthetic analogs were pre-incubated with the cells before adding the reference ligand at its EC80. […] For antagonistic activity determination, cells were pre-incubated with antagonist followed by agonist challenge at the EC80 concentration. […] Then, 5 μL of 6× EC80 agonist in assay buffer was added to the cells and incubated at 37 C or room temperature for 90 or 180 minutes.
The microplates were read following signal generation with a PerkinElmer Envision™ instrument for chemiluminescent signal detection.
% Activity=100%×(mean RLU of test sample−mean RLU of vehicle control)/(mean MAX control ligand−mean RLU of vehicle control). For antagonistic activity assays, percentage inhibition was calculated using the following formula: % Inhibition=100%×(1−(mean RLU of test sample−mean RLU of vehicle control)/(mean RLU of EC80 control−mean RLU of vehicle control)).

CLR/RAMP1 receptor [2] = target: T2, CLR/RAMP1 receptor (Homo sapiens, UniProt O60894+Q16602); assay: CLR/RAMP1 cAMP assay, antagonist mode (CGRP-stimulated); conditions: antagonist mode
T2 sequence (Q16602 23-461): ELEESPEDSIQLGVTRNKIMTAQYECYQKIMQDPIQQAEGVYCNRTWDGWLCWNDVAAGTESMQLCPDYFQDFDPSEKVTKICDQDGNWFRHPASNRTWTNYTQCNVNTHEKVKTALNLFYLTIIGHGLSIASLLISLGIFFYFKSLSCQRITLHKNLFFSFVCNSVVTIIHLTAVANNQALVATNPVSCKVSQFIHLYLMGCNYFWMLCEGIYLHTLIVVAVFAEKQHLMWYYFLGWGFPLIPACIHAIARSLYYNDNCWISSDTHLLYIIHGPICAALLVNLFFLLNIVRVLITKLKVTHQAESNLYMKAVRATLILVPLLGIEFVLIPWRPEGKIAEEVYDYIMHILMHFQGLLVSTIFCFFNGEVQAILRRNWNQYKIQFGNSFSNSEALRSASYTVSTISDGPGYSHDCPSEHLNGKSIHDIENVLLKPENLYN
T2 sequence (O60894 27-148): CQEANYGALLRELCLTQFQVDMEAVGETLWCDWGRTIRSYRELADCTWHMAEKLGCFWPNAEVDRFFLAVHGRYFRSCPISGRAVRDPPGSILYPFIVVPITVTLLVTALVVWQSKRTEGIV
Description: A cell line carrying the recombinant CLR/RAMP1, CLR/RAMP2, or a CLR/RAMP3 receptor was employed in the assay. […] The CLR/RAMP1 CAMP, CLR/RAMP2 arrestin, and CLR/RAMP3 CAMP assays (DiscoveRx, Fremont, Calif.) were used.
For the analysis of antagonistic activity, synthetic analogs were pre-incubated with the cells before adding the reference ligand at its EC80. […] For the determination of antagonistic activity, cells were pre-incubated with sample followed by agonist challenge at the EC80 concentration. […] After appropriate compound incubation, assay signal was generated through incubation with 20 μL cAMP XS+ED/CL lysis cocktail for one hour followed by incubation with 20 μL cAMP XS+EA reagent for three hours at room temperature. Microplates were read following signal generation with a PerkinElmer Envision™ instrument for chemiluminescent signal detection.
For the antagonistic activity assay, percentage inhibition is calculated using the following formula: % Inhibition=100%×(1−(mean RLU of test sample−mean RLU of vehicle control)/(mean RLU of EC80 control−mean RLU of vehicle control)).

CLR/RAMP2 receptor [3] = target: T1, CLR/RAMP2 receptor; assay: CLR/RAMP2 arrestin receptor-activation assay (agonist mode); conditions: for CLR/RAMP2 Max Activity % of positive control: agonist mode, positive control ADM; for receptor selectivity of agonists, in words: CLR/RAMP2 versus CLR/RAMP1;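 for all read-outs here: agonist dose-response in recombinant cell lines stably expressing each receptor complex, duplicate wells over 10 threefold dilutions from a top concentration of 1.0 µM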
Description: (§1) Using a receptor activation assay, the dose-dependent stimulatory response of peptide agonists on a CLR/RAMP1 receptor, a CLR/RAMP2, or a CLR/RAMP3 receptor complex was determined. A cell line carrying the recombinant CLR/RAMP1, CLR/RAMP2, or a CLR/RAMP3 receptor was employed in the assay. Peptide agonist activities were tested, in duplicate, at 10 different concentrations, starting with 1.0 μM and serially diluted 3-fold, in DMSO. […] The CLR/RAMP1 CAMP, CLR/RAMP2 arrestin, and CLR/RAMP3 CAMP assays (DiscoveRx, Fremont, Calif.) were used.
(§2) The pharmacology of superagonistic activity of synthetic analogs was studied in cells that stably express CLR/RAMP1 (1321N1 cells), CLR/RAMP2 (CHO-K1 cells), or CLR/RAMP3 (CHO-K1 cells) receptors.
For the Arrestin assays, PathHunter cell lines (Discoverx Inc.) were expanded from freezer stocks, and seeded in a total volume of 20 μL into white walled, 384-well microplates and incubated at 37 C for the appropriate time prior to testing. For agonist determination, cells were incubated with sample to induce response. […] The microplates were read following signal generation with a PerkinElmer Envision™ instrument for chemiluminescent signal detection.
The compound activity was analyzed using a CBIS data analysis suite (ChemInnovation, CA). For agonist mode assays, percentage activity was calculated using the following formula:
% Activity=100%×(mean RLU of test sample−mean RLU of vehicle control)/(mean MAX control ligand−mean RLU of vehicle control).

CLR/RAMP1 receptor [4] = target: T2, CLR/RAMP1 receptor; assay: CLR/RAMP1 cAMP receptor-activation assay (agonist mode); conditions: agonist mode; positive control β-CGRP;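 note: Dose–response over 10 threefold dilutions from 1.0 µM, run in duplicate, luminescent cAMP detection (RLU), activity scaled between vehicle control (0%) and maximal control (100%)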
Description: as §1, §2
For the analysis of Gs-coupled CAMP production, cAMP Hunter cell lines were expanded from freezer stocks, and cells were seeded in a total volume of 20 μL into white walled, 384-well microplates and incubated at 37 C for the appropriate time prior to testing. The CAMP modulation was determined using the DiscoverX HitHunter CAMP XS+ assay. For agonistic activity determination, cells were incubated with sample to induce response. Media was aspirated from cells and replaced with 15 μL 2:1 HBSS/10 mM Hepes: CAMP XS+Ab reagent. […] For Gs-coupled agonistic assays, percentage activity is calculated using the following formula: % Activity=100%×(mean RLU of test sample−mean RLU of vehicle control)/(mean RLU of MAX control−mean RLU of vehicle control).

T1 sequence (Q16602 23-461): as the sequence (Q16602 23-461) above
T1 sequence (O60895 43-175): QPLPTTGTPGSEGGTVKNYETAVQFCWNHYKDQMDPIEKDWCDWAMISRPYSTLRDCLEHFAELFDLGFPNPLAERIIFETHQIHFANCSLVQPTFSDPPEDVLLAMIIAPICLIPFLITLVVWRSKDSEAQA

Row | Compound | CLR/RAMP2 Max Activity % of positive control (antagonist) (CLR/RAMP2 receptor [1]) | CLR/RAMP1 Max Activity % of positive control (antagonist) (CLR/RAMP1 receptor [2]) | CLR/RAMP2 Max Activity % of positive control (CLR/RAMP2 receptor [3]) | CLR/RAMP1 Max Activity % of positive control (CLR/RAMP1 receptor [4]) | receptor selectivity of agonists, in words (CLR/RAMP2 receptor [3])
1 | PEG2000-K[PAL]VQKLAHQIYQFTDKDSAPVDPSSPHSY-NH2 [SEQ ID NO: 191] | 101 % of positive control | 98 % of positive control |  |  | 
2 | Ace-PEG3-K(Hexadecanoyl-PEG3-isoGlu)GCRFGTCTVQKLAHQIYQFTDKDKDNVAPRSKISPQGY-NH2 [SEQ ID NO: 154] |  |  | 112 % of positive control | 83 % of positive control | 
3 | miniPEG-K(PAL)GCRFGTCTVQKLAHQIYQFTDKDKDNVAPVDPSSPHSY-NH2 [SEQ ID NO: 50] |  |  | 87 % of positive control | 65 % of positive control | 
4 | miniPEG-K(PAL)GCRFGTCTVQKLAHQIYQFTDKDVAPR(D-Ser)KISPQGY-NH2 [SEQ ID NO: 213] |  |  | 107 % of positive control | 115 % of positive control | 
5 | miniPEG-K(PAL)GCRFGTCTVQKLAHQIYQFTDKDVAPRSKISP(D-Gln)GY-NH2 [SEQ ID NO: 214] |  |  | 99 % of positive control | 112 % of positive control | CLR/RAMP2-selective
6 | Ace-PEG3-K([19-carboxy-nonadecanoyl]-PEG3-isoGlu)GCRFGTCTVQKLAHQIYQFTDKDKDNVAPRSKISPQGY-NH2 [SEQ ID NO: 156] |  |  | 91 % of positive control | 88 % of positive control | 
7 | Human β-CGRP [Wild type CGRP-β positive, reference compound] |  |  |  | 100 % of positive control | 
8 | miniPEG-K(PAL)CRFGTCTVQKLAHQIYQFTDKDKDNSAPVDPSSPHSY-NH2 [SEQ ID NO: 43] |  |  | 30 % of positive control | 39 % of positive control | 
9 | AcePEG3--K([17-carboxy-heptadecanoyl]-isoGlu-Peg3-Peg3)GCRFGTCTVQKLAHQIYQFTDKDKDNVAPRSKISPQGY-NH2 [SEQ ID NO: 158] |  |  | 113 % of positive control | 95 % of positive control | 
10 | CSCC[C@H](NC(=O)CNC(=O)CNC(=O)[C@H](CO)NC(=O)[C@H](CCCNC(=N)N)NC(=O)[C@H](CO)NC(=O)[C@H](CC(C)C)NC(=O)[C@H](CC(C)C)NC(=O)CNC(=O)[C@H](C)NC(=O)[C@H](CC(C)C)NC(=O)[C@H](CCCNC(=N)N)NC(=O)[C@H](Cc1c[nH]cn1)NC(=O)[C@@H](NC(=O)[C@@H](NC(=O)[C@@H]1CSSC[C@H](NC(=O)[C@H](C)N)C(=O)N[C@@H](CC(N)=O)C(=O)N[C@@H]([C@@H](C)O)C(=O)N[C@@H](C)C(=O)N[C@@H]([C@@H](C)O)C(=O)N1)C(C)C)[C@@H](C)O)C(=O)N[C@H](C(=O)N[C@@H](CCCCN)C(=O)N[C@@H](CO)C(=O)N[C@@H](CC(N)=O)C(=O)N[C@@H](Cc1ccccc1)C(=O)N[C@H](C(=O)N1CCC[C@H]1C(=O)N[C@H](C(=O)N[C@@H](CC(N)=O)C(=O)N[C@H](C(=O)NCC(=O)N[C@@H](CO)C(=O)N[C@@H](CCCCN)C(=O)N[C@@H](C)C(=O)N[C@@H](Cc1ccccc1)C(N)=O)C(C)C)[C@@H](C)O)C(C)C)C(C)C [SEQ ID NO: 143, reference compound] |  |  |  | 103 % of positive control | 
11 | Ace-PEG3-K([19-carboxy-nonadecanoyl]-isoGlu-PEG3)GCRFGTCTVQKLAHQIYQFTDKDVAPRSKISPQGY-NH2 [SEQ ID NO: 159] |  |  | 60 % of positive control | 90 % of positive control | 
12 | Ace-PEG3-K(Hexadecanoyl-isoGlu)GCRFGTCTVQKLAHQIYQFTDKDKDNVAPRSKISPQGY-NH2 [SEQ ID NO: 151] |  |  | 134 % of positive control | 85 % of positive control | 
13 | miniPEG-K(PAL)GCRFGTC(D-Thr)VQKLAHQIYQFTDKDVAPRSKISPQGY-NH2 [SEQ ID NO: 210] |  |  | 47 % of positive control | 77 % of positive control | CLR/RAMP2-selective
14 | Ace-PEG3-K([19-carboxy-nonadecanoyl]-isoGlu)GCRFGTCTVQKLAHQIYQFTDKDKDNVAPRSKISPQGY-NH2 [SEQ ID NO: 155] |  |  | 95 % of positive control | 81 % of positive control | 
15 | Ace-RPKPQQFFGLM-miniPEG-K(PAL)GCRFGTCTVQKLAHQIYQFTDKDSAPVDPSSPHSY-NH2 [SEQ ID NO: 147] |  |  | 90 % of positive control | 109 % of positive control | 
16 | Ace-PEG3-K([19-carboxy-nonadecanoyl]-isoGlu-Peg3-Peg3)GCRFGTCTVQKLAHQIYQFTDKDKDNVAPRSKISPQGY-NH2 [SEQ ID NO: 157] |  |  | 95 % of positive control | 100 % of positive control | 
17 | miniPEG-K(PAL)TKKTLRTGCRFGTCTVQKLAHQIYQFTDKDKDNVAPRSKISPQGY-NH2 [SEQ ID NO: 70] |  |  | 68 % of positive control | 69 % of positive control | 
